Earlier results in US20240139105A1, “PHARMACEUTICAL COMPOSITION CONTAINING GHRP-6” (CENTRO DE INGENIERÍA GENÉTICA Y BIOTECNOLOGÍA, priority 2021, published 2024).
Where no end group is shown, it is not given here. [ ]: non-standard residue; d: D form.

Key:
pigs = conditions: model of acute myocardial infarction in pigs
[1] = tested on: Mongolia gerbil (Meriones unguiculatus); conditions: model of ischemic cerebral infarction, in combination with EGF
humans = conditions: intravenous route

## His-Trp-Ala-Trp-Phe-Lys-NH2 (H[dW]AW[dF]K-NH2) [GHRP-6, synthetic peptide, growth hormone secretagogue; the API of all formulations]
pigs
  Therapeutic dosage reported: 400 µg/kg
[1]
  Therapeutic dosage reported: around 600 μg/kg
humans
  Doses referred as safe in humans: ≤ 2 µg/kg
